Measured values: article PMC11491390, “Inhibition of HCN1 currents by norquetiapine, an active metabolite of the atypical anti-psychotic drug quetiapine” (Frontiers in Pharmacology, 2024)

Biological target: T1, HCN1 (Mus musculus, UniProt O88704)
T1 construct: full-length HCN1
Assay: two-electrode voltage clamp, channel expressed in Xenopus laevis oocytes (shift in V1/[…])
Type: cell-based

T1 sequence (O88704 whole entry): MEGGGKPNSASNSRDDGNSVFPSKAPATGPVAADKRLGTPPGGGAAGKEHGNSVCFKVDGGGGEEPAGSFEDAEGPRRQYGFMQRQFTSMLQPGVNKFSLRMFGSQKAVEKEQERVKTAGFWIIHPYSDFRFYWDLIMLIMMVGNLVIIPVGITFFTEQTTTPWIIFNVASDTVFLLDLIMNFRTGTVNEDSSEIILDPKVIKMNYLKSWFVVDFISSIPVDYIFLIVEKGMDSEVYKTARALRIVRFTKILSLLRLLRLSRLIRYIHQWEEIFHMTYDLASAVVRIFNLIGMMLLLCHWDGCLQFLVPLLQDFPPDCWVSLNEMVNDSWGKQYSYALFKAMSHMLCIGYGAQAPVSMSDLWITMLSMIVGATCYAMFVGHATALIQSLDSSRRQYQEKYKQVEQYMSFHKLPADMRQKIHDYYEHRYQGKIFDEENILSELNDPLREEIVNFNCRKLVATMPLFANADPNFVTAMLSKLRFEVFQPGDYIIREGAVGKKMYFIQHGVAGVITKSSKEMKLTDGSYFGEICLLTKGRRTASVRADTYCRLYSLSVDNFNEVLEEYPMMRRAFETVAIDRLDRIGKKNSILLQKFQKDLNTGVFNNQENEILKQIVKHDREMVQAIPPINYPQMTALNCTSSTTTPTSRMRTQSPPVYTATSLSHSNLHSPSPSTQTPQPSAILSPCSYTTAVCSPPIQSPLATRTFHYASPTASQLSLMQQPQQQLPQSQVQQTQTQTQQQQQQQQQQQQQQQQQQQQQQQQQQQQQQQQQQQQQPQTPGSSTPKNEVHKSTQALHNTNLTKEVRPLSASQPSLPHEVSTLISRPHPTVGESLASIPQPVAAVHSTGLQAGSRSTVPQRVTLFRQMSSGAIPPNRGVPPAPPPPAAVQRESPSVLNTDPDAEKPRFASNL

c1ccc2c(c1)N=C(N1CCNCC1)c1ccccc1S2 [NQTP, norquetiapine]
IC50: 13.9 ± 0.8 µM
